Legend:
[1] = Ratio of drug level in mouse brain to plasma at 10 mg/kg, po; type: ADME, organism-based; details: read-out: BPR
[2] = target: Phosphatidylinositol 3-kinase catalytic subunit type 3 (Homo sapiens) (UniProt Q8NEB9); experiment: Inhibition of PIK3C3 ATP binding site (TEDGGKYPVIFKHGDDLR) in human PBMC at 1 uM
[3] = target: T1, Phosphatidylinositol 4,5-bisphosphate 3-kinase catalytic subunit delta isoform (Homo sapiens) (UniProt O00329); experiment: Inhibition of PIK3CD ATP binding site (VNWLAHNVSKDNRQ) in human PBMC at 1 uM
T1 sequence (whole entry): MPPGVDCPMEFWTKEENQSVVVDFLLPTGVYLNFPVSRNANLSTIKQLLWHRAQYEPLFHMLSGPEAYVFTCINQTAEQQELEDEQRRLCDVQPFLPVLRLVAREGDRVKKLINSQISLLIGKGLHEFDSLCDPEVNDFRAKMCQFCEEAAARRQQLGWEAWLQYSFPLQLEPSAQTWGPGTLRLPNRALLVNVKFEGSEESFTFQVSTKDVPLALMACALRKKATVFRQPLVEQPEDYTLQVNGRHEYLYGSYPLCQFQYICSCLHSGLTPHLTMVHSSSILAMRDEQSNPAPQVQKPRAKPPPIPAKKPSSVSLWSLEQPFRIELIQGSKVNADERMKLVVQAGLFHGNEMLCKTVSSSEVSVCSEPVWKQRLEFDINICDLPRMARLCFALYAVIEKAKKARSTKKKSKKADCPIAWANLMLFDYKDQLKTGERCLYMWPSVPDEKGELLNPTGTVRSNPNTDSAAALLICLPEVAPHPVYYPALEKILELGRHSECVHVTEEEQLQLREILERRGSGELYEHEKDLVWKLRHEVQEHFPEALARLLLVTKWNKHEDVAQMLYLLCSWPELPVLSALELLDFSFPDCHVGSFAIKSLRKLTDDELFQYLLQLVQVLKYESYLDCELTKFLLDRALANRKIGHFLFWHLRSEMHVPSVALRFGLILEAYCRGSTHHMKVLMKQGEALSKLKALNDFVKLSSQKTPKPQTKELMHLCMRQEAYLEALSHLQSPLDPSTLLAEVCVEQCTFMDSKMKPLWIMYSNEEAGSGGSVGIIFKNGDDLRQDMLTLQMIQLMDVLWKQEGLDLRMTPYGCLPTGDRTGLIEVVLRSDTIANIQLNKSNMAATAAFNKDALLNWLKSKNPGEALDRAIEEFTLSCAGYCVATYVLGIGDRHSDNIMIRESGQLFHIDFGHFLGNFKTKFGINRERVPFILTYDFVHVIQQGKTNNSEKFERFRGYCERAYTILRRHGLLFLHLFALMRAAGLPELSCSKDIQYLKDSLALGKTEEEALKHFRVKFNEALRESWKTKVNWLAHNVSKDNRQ

[4] = target: Ribosomal protein S6 kinase alpha-1 (Homo sapiens) (UniProt Q15418); experiment: Inhibition of RSK1 conserved Lys2 (DLKPENILLDEEGHIK) in human PBMC at 1 uM; details: pooled result: one value given for 4 cell lines, strains, targets or settings
Ribosomal protein S6 kinase alpha-1 (Homo sapiens), sequence (Q15418 whole entry): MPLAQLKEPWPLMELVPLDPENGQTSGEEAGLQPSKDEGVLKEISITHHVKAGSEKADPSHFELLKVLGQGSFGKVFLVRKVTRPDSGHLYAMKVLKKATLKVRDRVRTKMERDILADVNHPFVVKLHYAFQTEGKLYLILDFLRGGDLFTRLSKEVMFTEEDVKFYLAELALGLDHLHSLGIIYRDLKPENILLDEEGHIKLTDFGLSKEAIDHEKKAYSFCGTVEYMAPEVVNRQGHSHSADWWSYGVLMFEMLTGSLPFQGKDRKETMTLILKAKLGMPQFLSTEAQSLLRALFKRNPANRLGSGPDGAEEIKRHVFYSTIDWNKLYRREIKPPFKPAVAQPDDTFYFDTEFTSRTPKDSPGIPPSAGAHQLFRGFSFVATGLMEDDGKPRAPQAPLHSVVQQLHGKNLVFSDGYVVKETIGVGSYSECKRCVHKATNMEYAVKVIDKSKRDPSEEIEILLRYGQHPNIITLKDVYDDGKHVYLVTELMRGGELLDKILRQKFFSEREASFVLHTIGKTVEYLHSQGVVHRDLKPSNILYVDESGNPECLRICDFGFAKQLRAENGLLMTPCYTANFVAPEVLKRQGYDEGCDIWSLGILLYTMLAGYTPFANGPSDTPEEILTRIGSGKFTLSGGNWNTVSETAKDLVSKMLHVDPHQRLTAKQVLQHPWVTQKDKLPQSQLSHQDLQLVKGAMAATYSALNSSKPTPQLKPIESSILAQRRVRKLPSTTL

[5] = target: Serine/threonine-protein kinase ULK1 (Homo sapiens) (UniProt O75385); experiment: Inhibition of ULK1 conserved Lys2 (DLKPQNILLSNPAGR) in human PBMC at 1 uM
Serine/threonine-protein kinase ULK1 (Homo sapiens), sequence (O75385 whole entry): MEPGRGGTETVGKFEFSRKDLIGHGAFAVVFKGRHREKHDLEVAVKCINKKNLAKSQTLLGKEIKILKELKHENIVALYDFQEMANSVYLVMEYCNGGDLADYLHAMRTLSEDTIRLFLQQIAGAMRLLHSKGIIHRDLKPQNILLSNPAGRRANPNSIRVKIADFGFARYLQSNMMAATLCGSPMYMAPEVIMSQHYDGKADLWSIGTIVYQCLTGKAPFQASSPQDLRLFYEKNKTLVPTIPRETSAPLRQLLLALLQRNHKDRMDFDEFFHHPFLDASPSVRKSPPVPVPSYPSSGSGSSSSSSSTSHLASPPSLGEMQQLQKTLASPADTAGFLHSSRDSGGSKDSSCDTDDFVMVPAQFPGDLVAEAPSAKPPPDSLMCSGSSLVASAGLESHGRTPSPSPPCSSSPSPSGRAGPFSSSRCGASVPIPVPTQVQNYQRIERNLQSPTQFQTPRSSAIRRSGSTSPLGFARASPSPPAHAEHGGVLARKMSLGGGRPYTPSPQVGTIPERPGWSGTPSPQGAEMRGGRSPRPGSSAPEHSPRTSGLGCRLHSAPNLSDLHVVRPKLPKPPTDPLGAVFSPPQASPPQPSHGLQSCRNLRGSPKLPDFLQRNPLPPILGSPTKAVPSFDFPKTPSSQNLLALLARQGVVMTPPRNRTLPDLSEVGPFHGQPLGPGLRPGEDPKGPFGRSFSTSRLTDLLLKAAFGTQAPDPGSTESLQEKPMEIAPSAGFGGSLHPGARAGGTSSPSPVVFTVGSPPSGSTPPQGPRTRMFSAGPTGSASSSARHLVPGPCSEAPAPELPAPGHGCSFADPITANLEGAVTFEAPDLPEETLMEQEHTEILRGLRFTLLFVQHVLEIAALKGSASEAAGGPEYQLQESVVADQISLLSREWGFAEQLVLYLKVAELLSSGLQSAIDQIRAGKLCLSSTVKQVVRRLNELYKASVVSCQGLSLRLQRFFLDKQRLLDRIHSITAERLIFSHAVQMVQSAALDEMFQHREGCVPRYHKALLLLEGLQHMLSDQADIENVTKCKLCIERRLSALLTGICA

[6] = target: T2, Inhibitor of nuclear factor kappa-B kinase subunit epsilon (Homo sapiens) (UniProt Q14164); experiment: Inhibition of IKKe conserved Lys1 (SGELVAVKVFNTTSYLRPR) in human PBMC at 0.1 uM
T2 sequence (whole entry): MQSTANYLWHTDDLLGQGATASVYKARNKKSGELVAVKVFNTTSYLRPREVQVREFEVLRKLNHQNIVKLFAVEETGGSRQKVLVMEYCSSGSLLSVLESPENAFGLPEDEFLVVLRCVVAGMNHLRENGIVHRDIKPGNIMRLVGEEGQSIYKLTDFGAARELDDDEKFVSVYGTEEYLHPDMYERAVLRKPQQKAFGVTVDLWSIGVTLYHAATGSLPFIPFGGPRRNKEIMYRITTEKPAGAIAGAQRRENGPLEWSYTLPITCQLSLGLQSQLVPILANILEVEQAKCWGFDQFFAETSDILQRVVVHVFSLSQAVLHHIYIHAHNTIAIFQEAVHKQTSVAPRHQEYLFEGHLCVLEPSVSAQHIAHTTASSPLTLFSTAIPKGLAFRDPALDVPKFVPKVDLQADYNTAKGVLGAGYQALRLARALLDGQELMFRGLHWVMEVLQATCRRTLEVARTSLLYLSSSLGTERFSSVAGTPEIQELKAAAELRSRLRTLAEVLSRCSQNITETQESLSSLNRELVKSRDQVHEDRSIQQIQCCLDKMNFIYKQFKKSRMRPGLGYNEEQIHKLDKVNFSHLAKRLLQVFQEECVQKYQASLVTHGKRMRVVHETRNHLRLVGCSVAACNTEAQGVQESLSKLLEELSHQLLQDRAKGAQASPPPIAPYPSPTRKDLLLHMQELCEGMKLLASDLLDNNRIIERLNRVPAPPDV

[7] = target: Mitogen-activated protein kinase 9 (Homo sapiens) (UniProt P45984); experiment: Inhibition of JNK2 conserved Lys2 (DLKPSNIVVK) in human PBMC at 0.1 uM
Mitogen-activated protein kinase 9 (Homo sapiens), sequence (P45984 whole entry, looked up): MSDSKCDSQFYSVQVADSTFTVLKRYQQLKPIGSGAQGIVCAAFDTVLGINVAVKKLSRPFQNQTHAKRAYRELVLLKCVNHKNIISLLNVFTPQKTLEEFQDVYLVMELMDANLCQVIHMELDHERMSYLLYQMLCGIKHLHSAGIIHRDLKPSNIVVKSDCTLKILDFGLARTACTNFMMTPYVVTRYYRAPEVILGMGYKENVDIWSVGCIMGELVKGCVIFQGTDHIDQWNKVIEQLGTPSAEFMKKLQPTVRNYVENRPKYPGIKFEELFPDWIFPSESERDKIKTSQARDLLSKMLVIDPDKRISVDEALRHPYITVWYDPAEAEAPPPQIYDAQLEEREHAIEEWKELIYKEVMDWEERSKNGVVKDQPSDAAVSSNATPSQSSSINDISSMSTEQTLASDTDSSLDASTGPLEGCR

[8] = target: Serine/threonine-protein kinase tousled-like 1 (Homo sapiens) (UniProt Q9UKI8); experiment: Inhibition of TLK1 conserved Lys2 (YLNEIKPPIIHYDLKPGNILLVDGTACGEIK) in human PBMC at 0.1 uM
Serine/threonine-protein kinase tousled-like 1 (Homo sapiens), sequence (Q9UKI8 whole entry): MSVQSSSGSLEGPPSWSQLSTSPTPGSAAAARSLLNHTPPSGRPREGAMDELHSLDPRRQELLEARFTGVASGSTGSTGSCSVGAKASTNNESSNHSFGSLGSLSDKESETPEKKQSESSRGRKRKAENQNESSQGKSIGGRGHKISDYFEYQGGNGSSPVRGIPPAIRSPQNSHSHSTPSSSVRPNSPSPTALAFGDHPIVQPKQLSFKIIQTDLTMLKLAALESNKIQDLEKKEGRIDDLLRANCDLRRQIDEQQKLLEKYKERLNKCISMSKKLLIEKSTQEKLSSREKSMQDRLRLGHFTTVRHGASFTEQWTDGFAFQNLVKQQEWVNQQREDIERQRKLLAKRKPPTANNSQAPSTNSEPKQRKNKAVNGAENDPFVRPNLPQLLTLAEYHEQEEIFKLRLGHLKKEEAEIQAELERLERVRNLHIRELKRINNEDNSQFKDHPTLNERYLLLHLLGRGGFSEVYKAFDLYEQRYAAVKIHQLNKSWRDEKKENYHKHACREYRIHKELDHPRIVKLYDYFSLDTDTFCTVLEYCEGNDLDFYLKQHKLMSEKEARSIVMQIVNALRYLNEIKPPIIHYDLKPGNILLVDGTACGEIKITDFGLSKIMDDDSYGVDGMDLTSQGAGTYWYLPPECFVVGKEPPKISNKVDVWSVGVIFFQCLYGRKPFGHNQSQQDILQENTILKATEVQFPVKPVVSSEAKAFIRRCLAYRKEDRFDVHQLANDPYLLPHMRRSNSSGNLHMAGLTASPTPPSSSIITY

[9] = target: T3, Serine/threonine-protein kinase ULK3 (Homo sapiens) (UniProt Q6PHR2); experiment: Inhibition of ULK3 conserved Lys2 (NISHLDLKPQNILLSSLEKPHLK) in human PBMC at 0.1 uM
T3 sequence (whole entry): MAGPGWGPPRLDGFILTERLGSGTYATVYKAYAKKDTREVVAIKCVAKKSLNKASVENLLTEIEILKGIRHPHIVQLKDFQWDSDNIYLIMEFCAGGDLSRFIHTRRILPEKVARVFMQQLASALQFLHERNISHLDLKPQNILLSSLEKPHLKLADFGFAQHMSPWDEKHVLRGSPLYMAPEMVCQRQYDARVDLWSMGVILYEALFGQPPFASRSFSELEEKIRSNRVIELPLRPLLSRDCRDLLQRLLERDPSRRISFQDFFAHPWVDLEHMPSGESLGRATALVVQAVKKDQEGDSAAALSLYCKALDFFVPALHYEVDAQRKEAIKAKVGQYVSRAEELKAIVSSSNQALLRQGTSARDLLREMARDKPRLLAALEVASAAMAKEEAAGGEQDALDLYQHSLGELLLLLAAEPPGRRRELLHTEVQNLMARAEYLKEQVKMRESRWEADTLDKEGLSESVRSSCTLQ

Phosphatidylinositol 3-kinase catalytic subunit type 3 (Homo sapiens), sequence (Q8NEB9 whole entry, canonical isoform): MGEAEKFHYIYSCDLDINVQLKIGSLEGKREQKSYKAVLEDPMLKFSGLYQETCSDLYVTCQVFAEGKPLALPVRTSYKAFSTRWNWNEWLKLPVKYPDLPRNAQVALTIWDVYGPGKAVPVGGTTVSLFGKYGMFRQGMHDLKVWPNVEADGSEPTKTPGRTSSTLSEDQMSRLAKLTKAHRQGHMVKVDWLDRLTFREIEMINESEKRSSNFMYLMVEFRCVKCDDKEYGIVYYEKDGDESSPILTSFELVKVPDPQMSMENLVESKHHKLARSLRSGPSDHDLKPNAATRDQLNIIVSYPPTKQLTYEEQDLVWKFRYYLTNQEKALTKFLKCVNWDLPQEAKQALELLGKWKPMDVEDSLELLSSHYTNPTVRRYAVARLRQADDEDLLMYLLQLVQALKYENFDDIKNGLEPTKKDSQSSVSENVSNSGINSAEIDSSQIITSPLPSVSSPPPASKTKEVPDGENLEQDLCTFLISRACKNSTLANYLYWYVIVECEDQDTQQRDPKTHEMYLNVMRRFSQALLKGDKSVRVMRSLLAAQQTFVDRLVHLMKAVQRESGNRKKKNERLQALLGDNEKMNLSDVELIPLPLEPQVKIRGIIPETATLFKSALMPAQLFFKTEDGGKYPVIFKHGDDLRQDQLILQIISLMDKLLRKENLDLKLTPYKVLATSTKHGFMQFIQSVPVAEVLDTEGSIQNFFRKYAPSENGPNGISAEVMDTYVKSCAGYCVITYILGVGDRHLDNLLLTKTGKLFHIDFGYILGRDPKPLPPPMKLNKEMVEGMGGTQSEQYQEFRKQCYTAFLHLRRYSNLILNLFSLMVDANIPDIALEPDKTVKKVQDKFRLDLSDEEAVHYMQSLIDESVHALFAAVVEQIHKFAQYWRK

SMILES: CC(C)n1cc(-c2cc(-c3ccc(CN4CCOCC4)cc3)cnc2N)nn1
- Kp [1]: 1.3
- inhibition [2]: 2.8%
- inhibition [3]: 8%
- inhibition [4]: 10.2%
- inhibition [5]: 10.8%
- inhibition [6]: 6.2%
- inhibition [7]: 25.1%
- inhibition [8]: -3.1%
- inhibition [9]: 27.2%

— ChEMBL document CHEMBL4043168, “The design and SAR of a novel series of 2-aminopyridine based LRRK2 inhibitors” (Bioorg Med Chem Lett, 2017)
